Laboratory results published in patent EP4737445A1, “NOVEL SATURATED HETEROCYCLE-SUBSTITUTED HETEROARYL-CARBONOHYDRAZONOYL DICYANIDE COMPOUND AND USE THEREOF” (Korea Institute of Science and Technology, priority 2023, dated 2025).

What was measured:
CYP2D6 = molecular target: T1, CYP2D6 (Homo sapiens, UniProt P10635); experiment: CYP isoenzyme activity inhibition in human liver microsomes, CYP2D6; assay type: in vitro ADME; conditions: 10 µM compound; human liver microsomes 0.25 mg/mL; relative to control without compound
T1 construct: human liver microsomes (0.25 mg/mL); from tissue; host or cells: human liver microsomes
Experimental: (§1) The CYP isoenzyme activity inhibitory effect by the compounds prepared according to Examples 1 to 46 was confirmed. Specifically, human liver microsomes (0.25 mg/mL), 0.1 M phosphate buffer solution (pH 7.4), a substrate drug cocktail of five drug metabolizing enzymes (Phenacetin 50 µM, Diclofenac 10 µM, S-mephenytoin 100 µM, Dextromethorphan 5 µM, and Midazolam 2.5 µM), and the compounds were added at concentrations of 0 or 10 µM, respectively, and pre-incubated at 37°C for 5 minutes, and then NADPH generation system solution was added and incubated at 37°C for an additional 15 minutes. Thereafter, an acetonitrile solution containing an internal standard (Terfenadine) was added to terminate the reaction, and after centrifugation for 5 minutes (14,000 rpm, 4°C), the supernatant was injected into an LC-MS/MS system to simultaneously analyze the metabolites of the substrate drugs, thereby evaluating the drug metabolizing enzyme inhibitory activity.
(§2) The metabolites of each CYP isoenzyme marker drug generated through the reaction were analyzed using a Shimadzu Nexera XR system and TSQ vantage (Thermo). A Kinetex C18 (2.1 × 100 mm, 2.6 µm, particle size; Phenomenex, USA) was used as the HPLC column, and (A) distilled water containing 0.1% formic acid and (B) acetonitrile containing 0.1% formic acid were used as mobile phases, and a gradient program as shown in Table 6 below was applied.
(§3) The generated metabolites were quantified using MRM (Multiple Reaction Monitoring) quantitative mode, and Xcalibur (version 1.6.1) was used for data analysis. To show the CYP isoenzyme activity inhibitory effect of the novel compounds prepared according to the Examples of the disclosure, the % activity of CYP isoenzymes relative to the control group without compound addition is shown in Table 6 below. Additionally, to confirm the difference in effect according to substituents, Comparative Compounds 1 and 5, which are two compounds that share a similar parent nucleus structure with Compounds 1 to 46 of the disclosure while Cy is substituted with aromatic heteroaryl instead of saturated heterocyclyl, were selected as comparative compounds and their activities are shown together.

Tau-BiFC cells = experiment: Cell viability (stained nuclei count) in Tau-BiFC cells; assay type: cell-based; conditions: @10 µM; Tau-BiFC cell line; Forskolin-only group = 100%
Experimental: To screen for new tau aggregation inhibitors, a Tau-BiFC cell model that facilitates observation of tau oligomer formation in living cells was used. Tau-BiFC cells were dispensed into a 384-well plate, and the next day, the compounds prepared according to Examples 1 to 46 were treated at concentrations of 1, 3, and 10 µM, respectively, together with Forskolin (treatment concentration 30 µM), which is a compound that induces tau aggregation by activating the tau phosphorylation enzyme PKA. After 48 hours, nuclei within cells were stained using Hoechst (treatment concentration 2 µg/mL), and BiFC fluorescence intensity was automatically quantified using Operetta (Perkin Elmer) to count the stained nuclei in each well from the entire plate. The group treated only with Forskolin, which induces tau aggregation, was set as the reference point with 100% tau aggregation state, and the effect was confirmed by the formula "BiFC fluorescence intensity by the compounds synthesized according to the Examples of the disclosure/(fluorescence intensity of the control group treated only with Forskolin that induces tau aggregation - fluorescence intensity of the untreated control group) × 100". In addition, the degree of cytotoxicity induced by the newly synthesized compounds was also calculated using the formula "(number of stained nuclei in the compound-treated group/number of stained nuclei in the Forskolin-treated group) × 100", with the group treated only with Forskolin as the reference point at 100% viability. From the treatment results, substances that inhibit intracellular tau aggregation were identified through screening from a series of candidates based on the criteria of 70% or more tau aggregation inhibition and 100% cell viability at a compound treatment concentration of 10 µM.
To confirm the tau aggregation inhibitory effect according to the concentration of the compounds screened in Experimental Example 1, the screened compounds were treated to Tau-BiFC cells at concentrations of 0.03, 0.1, 0.3, 1, 3, 10, and 30 µM, respectively, together with Forskolin (treatment concentration 30 µM), which is a tau aggregation-inducing substance. After 48 hours, cell images were examined to analyze the tau aggregation reaction and degree of cytotoxicity. The IC50 and toxicity of the compounds were analyzed by nonlinear regression analysis using Prism software (GraphPad). The calculated results for representative compounds are shown in Table 3 below: Tau aggregation inhibitory effect and cell viability of novel compounds.

CYP3A4 = molecular target: T2, CYP3A4 (Homo sapiens, UniProt P08684); experiment: CYP isoenzyme activity inhibition in human liver microsomes, CYP3A4; assay type: in vitro ADME; conditions: 10 µM compound; human liver microsomes 0.25 mg/mL; relative to control without compound
T2 construct: human liver microsomes (0.25 mg/mL); from tissue; host or cells: human liver microsomes
Experimental: as §1, §2, §3

CYP2C9 = molecular target: T3, CYP2C9 (Homo sapiens, UniProt P11712); experiment: CYP isoenzyme activity inhibition in human liver microsomes, CYP2C9; assay type: in vitro ADME; conditions: 10 µM compound; human liver microsomes 0.25 mg/mL; relative to control without compound
T3 construct: human liver microsomes (0.25 mg/mL); from tissue; host or cells: human liver microsomes
Experimental: as §1, §2, §3

[1] = Liver microsomal stability, human; assay type: in vitro ADME; conditions: 1 µM compound; 0.5 mg/mL microsomes; NADPH; 30 minutes at 37°C
Experimental: (§4) Liver microsomal stability by the compounds prepared according to Examples 1 to 46 was confirmed. Specifically, four types of liver microsomes (human, dog, rat, and mouse each at 0.5 mg/mL), 0.1 M phosphate buffer solution (pH 7.4), and the compounds at 1 µM concentration were added and pre-incubated at 37°C for 5 minutes, and then NADPH generation system solution was added and incubated at 37°C for an additional 30 minutes. Thereafter, an acetonitrile solution containing an internal standard (chloropropamide) was added to terminate the reaction, and after centrifugation for 5 minutes (14,000 rpm, 4°C), the supernatant was injected into an LC-MS/MS system to analyze the substrate drug, thereby evaluating the metabolic stability of 8 compounds.
(§5) The amount of remaining substrate through the reaction was analyzed using a Shimadzu Nexera XR system and TSQ vantage (Thermo). A Kinetex XB-C18 (2.1 × 100 mm, 2.6 µm, particle size; Phenomenex, USA) was used as the HPLC column, and (A) distilled water containing 0.1% formic acid and (B) acetonitrile containing 0.1% formic acid were used as mobile phases. Analyst software (version 1.6.3) and Xcalibur (version 1.6.1) were used for data analysis. The calculated results are shown in Table 5 below: Liver microsomal stability data of novel compounds from […] (human, rat, and mouse).

[2] = Liver microsomal stability, mouse; assay type: in vitro ADME; conditions: 1 µM compound; 0.5 mg/mL microsomes; NADPH; 30 minutes at 37°C
Experimental: as §4, §5

T2 sequence (P08684 whole entry): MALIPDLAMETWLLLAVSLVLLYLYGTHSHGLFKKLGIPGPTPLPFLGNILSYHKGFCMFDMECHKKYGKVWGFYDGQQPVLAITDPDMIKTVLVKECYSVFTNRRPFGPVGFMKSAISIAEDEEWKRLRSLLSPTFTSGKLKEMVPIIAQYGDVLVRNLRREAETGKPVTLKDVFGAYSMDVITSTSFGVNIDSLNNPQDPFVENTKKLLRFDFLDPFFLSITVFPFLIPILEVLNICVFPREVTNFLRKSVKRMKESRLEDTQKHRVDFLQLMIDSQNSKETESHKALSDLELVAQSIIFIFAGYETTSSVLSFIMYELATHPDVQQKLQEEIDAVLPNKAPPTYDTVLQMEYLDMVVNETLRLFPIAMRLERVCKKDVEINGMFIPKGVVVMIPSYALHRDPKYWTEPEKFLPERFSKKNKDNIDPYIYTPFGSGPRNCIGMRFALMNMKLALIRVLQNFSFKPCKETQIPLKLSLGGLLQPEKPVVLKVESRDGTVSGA
T1 sequence (P10635 whole entry): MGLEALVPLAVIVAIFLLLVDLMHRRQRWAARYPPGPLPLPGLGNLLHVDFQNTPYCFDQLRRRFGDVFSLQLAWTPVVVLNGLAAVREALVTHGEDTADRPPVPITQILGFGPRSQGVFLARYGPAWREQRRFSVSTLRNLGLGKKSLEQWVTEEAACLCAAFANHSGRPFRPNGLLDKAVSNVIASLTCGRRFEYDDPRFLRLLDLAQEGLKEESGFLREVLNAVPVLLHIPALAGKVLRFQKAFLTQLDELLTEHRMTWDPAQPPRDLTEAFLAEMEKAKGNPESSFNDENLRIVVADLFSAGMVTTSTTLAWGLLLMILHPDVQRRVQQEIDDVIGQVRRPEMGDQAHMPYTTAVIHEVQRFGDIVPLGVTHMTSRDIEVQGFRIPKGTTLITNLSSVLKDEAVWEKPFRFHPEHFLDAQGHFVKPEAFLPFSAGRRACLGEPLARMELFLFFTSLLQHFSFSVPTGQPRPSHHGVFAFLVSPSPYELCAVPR
T3 sequence (P11712 whole entry): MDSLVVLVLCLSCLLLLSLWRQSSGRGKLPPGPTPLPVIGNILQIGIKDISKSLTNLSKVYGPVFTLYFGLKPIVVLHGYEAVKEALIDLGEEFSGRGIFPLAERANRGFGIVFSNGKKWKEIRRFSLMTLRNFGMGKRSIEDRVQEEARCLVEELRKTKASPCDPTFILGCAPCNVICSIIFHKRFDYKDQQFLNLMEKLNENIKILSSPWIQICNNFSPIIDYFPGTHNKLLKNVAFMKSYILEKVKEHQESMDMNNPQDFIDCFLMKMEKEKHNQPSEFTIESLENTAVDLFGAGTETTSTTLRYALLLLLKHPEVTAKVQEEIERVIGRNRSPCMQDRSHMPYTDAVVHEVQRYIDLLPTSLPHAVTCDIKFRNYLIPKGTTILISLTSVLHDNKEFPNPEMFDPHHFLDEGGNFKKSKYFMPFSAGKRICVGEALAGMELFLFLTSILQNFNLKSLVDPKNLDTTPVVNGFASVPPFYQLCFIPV

SMILES: CN1CCN(c2nc3ccc(NN=C(C#N)C#N)cc3o2)CC1 [Compound 14, (2-(4-methylpiperazin-1-yl)benzo[d]oxazol-6-yl)carbonohydrazonoyl dicyanide]
- CYP2D6 (% activity) (CYP2D6): > 100 % activity
- Cell viability (% @10µM) (Tau-BiFC cells): 100%
- CYP3A4 (% activity) (CYP3A4): 96.8 % activity
- CYP2C9 (% activity) (CYP2C9): 88 % activity

SMILES: N#CC(C#N)=NNc1ccc2nc(N3CC4CCC(C3)O4)oc2c1 [Compound 26, (2-(8-oxa-3-azabicyclo[3.2.1]octan-3-yl)benzo[d]oxazol-6-yl)carbonohydrazonoyl dicyanide]
- CYP2D6 (% activity) (CYP2D6): 82.1 % activity
- Cell viability (% @10µM) (Tau-BiFC cells): 99%
- Human microsomes (% remaining) [1]: 96.3 % remaining
- CYP3A4 (% activity) (CYP3A4): 81.3 % activity
- Mouse microsomes (% remaining) [2]: 99 % remaining
- CYP2C9 (% activity) (CYP2C9): 53.3 % activity

SMILES: N#CC(C#N)=NNc1ccc2nc(N3CC[C@@H](F)C3)oc2c1 [Compound 41, (R)-(2-(3-fluoropyrrolidin-1-yl)benzo[d]oxazol-6-yl)carbonohydrazonoyl dicyanide]
- CYP2D6 (% activity) (CYP2D6): 86.8 % activity
- Cell viability (% @10µM) (Tau-BiFC cells): 100%
- Human microsomes (% remaining) [1]: 70.0 % remaining
- CYP3A4 (% activity) (CYP3A4): 86.5 % activity
- Mouse microsomes (% remaining) [2]: 65.3 % remaining
- CYP2C9 (% activity) (CYP2C9): 51.2 % activity

SMILES: Cn1c(N2C3CCC2COC3)nc2ccc(NN=C(C#N)C#N)cc21 [Compound 34, (2-(3-oxa-8-azabicyclo[3.2.1]octan-8-yl)-1-methyl-1H-benzo[d]imidazol-6-yl)carbonohydrazonoyl dicyanide]
- CYP2D6 (% activity) (CYP2D6): 92.4 % activity
- Cell viability (% @10µM) (Tau-BiFC cells): 100%
- Human microsomes (% remaining) [1]: 88.9 % remaining
- CYP3A4 (% activity) (CYP3A4): 84.3 % activity
- Mouse microsomes (% remaining) [2]: 78.2 % remaining
- CYP2C9 (% activity) (CYP2C9): 80.8 % activity

SMILES: N#CC(C#N)=NNc1ccc2nc(NC(=O)N3CC4CCC(C3)O4)sc2c1 [Compound 40, (2-(8-oxa-3-azabicyclo[3.2.1]octane-3-carboxamido)benzo[d]thiazol-6-yl)carbonohydrazonoyl dicyanide]
- CYP2D6 (% activity) (CYP2D6): 88.6 % activity
- Cell viability (% @10µM) (Tau-BiFC cells): 98%
- Human microsomes (% remaining) [1]: 94.2 % remaining
- CYP3A4 (% activity) (CYP3A4): 75.5 % activity
- Mouse microsomes (% remaining) [2]: 93.4 % remaining
- CYP2C9 (% activity) (CYP2C9): 46.9 % activity

SMILES: CC1CN(c2nc3ccc(NN=C(C#N)C#N)cc3s2)CCO1 (stereo not shown) [Compound 12, (2-(2-methylmorpholino)benzo[d]thiazol-6-yl)carbonohydrazonoyl dicyanide]
- CYP2D6 (% activity) (CYP2D6): 94.8 % activity
- Cell viability (% @10µM) (Tau-BiFC cells): 102%
- Human microsomes (% remaining) [1]: 62.7 % remaining
- CYP3A4 (% activity) (CYP3A4): 78.9 % activity
- Mouse microsomes (% remaining) [2]: 85.1 % remaining
- CYP2C9 (% activity) (CYP2C9): 65.1 % activity

SMILES: CC(C)N1CCN(c2nc3ccc(NN=C(C#N)C#N)cc3s2)CC1 [Compound 27, (2-(4-isopropylpiperazin-1-yl)benzo[d]thiazol-6-yl)carbonohydrazonoyl dicyanide]
- CYP2D6 (% activity) (CYP2D6): 92.3 % activity
- Cell viability (% @10µM) (Tau-BiFC cells): 99%
- CYP3A4 (% activity) (CYP3A4): 59.8 % activity
- CYP2C9 (% activity) (CYP2C9): 58.5 % activity

SMILES: CC(C)N1CCN(c2nc3ccc(NN=C(C#N)C#N)cc3o2)CC1 [Compound 28, (2-(4-isopropylpiperazin-1-yl)benzo[d]oxazol-6-yl)carbonohydrazonoyl dicyanide]
- CYP2D6 (% activity) (CYP2D6): 78 % activity
- Cell viability (% @10µM) (Tau-BiFC cells): 99%
- Human microsomes (% remaining) [1]: 11.7 % remaining
- CYP3A4 (% activity) (CYP3A4): 87.8 % activity
- Mouse microsomes (% remaining) [2]: 81.8 % remaining
- CYP2C9 (% activity) (CYP2C9): 48.5 % activity

SMILES: CC1COCCN1c1nc2ccc(NN=C(C#N)C#N)cc2s1 (stereo not shown) [Compound 13, (2-(3-methylmorpholino)benzo[d]thiazol-6-yl)carbonohydrazonoyl dicyanide]
- CYP2D6 (% activity) (CYP2D6): > 100 % activity
- Cell viability (% @10µM) (Tau-BiFC cells): 99%
- Human microsomes (% remaining) [1]: 79.9 % remaining
- CYP3A4 (% activity) (CYP3A4): 84.8 % activity
- Mouse microsomes (% remaining) [2]: 84.8 % remaining
- CYP2C9 (% activity) (CYP2C9): 75 % activity

SMILES: N#CC(C#N)=NNc1ccc2nc(N3C4CCC3COC4)oc2c1 [Compound 20, (2-(3-oxa-8-azabicyclo[3.2.1]octan-8-yl)benzo[d]oxazol-6-yl)carbonohydrazonoyl dicyanide]
- CYP2D6 (% activity) (CYP2D6): 57.5 % activity
- Cell viability (% @10µM) (Tau-BiFC cells): 96%
- Human microsomes (% remaining) [1]: > 100 % remaining
- CYP3A4 (% activity) (CYP3A4): 55.4 % activity
- Mouse microsomes (% remaining) [2]: 95.4 % remaining
- CYP2C9 (% activity) (CYP2C9): 48 % activity

SMILES: N#CC(C#N)=NNc1ccc2oc(N3CCOCC3)nc2c1 [Compound 3, (2-morpholinobenzo[d]oxazol-5-yl)carbonohydrazonoyl dicyanide]
- CYP2D6 (% activity) (CYP2D6): > 100 % activity
- Cell viability (% @10µM) (Tau-BiFC cells): 100%
- Human microsomes (% remaining) [1]: 99.4 % remaining
- CYP3A4 (% activity) (CYP3A4): > 100 % activity
- Mouse microsomes (% remaining) [2]: 80.6 % remaining
- CYP2C9 (% activity) (CYP2C9): > 100 % activity

SMILES: CCn1c(N2CCOCC2)nc2cc(NN=C(C#N)C#N)ccc21 [Compound 33, (1-ethyl-2-morpholino-1H-benzo[d]imidazol-5-yl)carbonohydrazonoyl dicyanide]
- CYP2D6 (% activity) (CYP2D6): 97.9 % activity
- Cell viability (% @10µM) (Tau-BiFC cells): 97%
- Human microsomes (% remaining) [1]: 94.9 % remaining
- CYP3A4 (% activity) (CYP3A4): 75.4 % activity
- Mouse microsomes (% remaining) [2]: 89 % remaining
- CYP2C9 (% activity) (CYP2C9): 28.8 % activity

SMILES: N#CC(C#N)=NNc1ccc2nc(N3CCNCC3)oc2c1 [Compound 25, (2-(piperazin-1-yl)benzo[d]oxazol-6-yl)carbonohydrazonoyl dicyanide]
- CYP2D6 (% activity) (CYP2D6): 93.5 % activity
- Cell viability (% @10µM) (Tau-BiFC cells): 94%
- CYP3A4 (% activity) (CYP3A4): 91.5 % activity
- CYP2C9 (% activity) (CYP2C9): 93.5 % activity

SMILES: N#CC(C#N)=NNc1ccc2nc(N3CCNCC3)sc2c1 [Compound 24, (2-(piperazin-1-yl)benzo[d]thiazol-6-yl)carbonohydrazonoyl dicyanide]
- CYP2D6 (% activity) (CYP2D6): 74.2 % activity
- Cell viability (% @10µM) (Tau-BiFC cells): 95%
- CYP3A4 (% activity) (CYP3A4): 74.7 % activity
- CYP2C9 (% activity) (CYP2C9): 72.0 % activity
